These are literature values, as cited in patent publication US11091735B2, “Polyvalent culture medium for anaerobic bacteria under aerobic conditions” (FONDATION MEDITERRANEE INFECTION, priority 2017, dated 2021).

The conditions of the series: stock solution therefore prepared in ethanol.

Regarding `Cc1cc(C(C)(C)C)c(O)c(C(C)(C)C)c1` [BHT, Butylhydroxytoluene], the solubility in water entry is reported as “not soluble in water”.

In the case of vitamin E, the solubility in water result is recorded as “not soluble in water”.
